Molecules are shown by their SMILES. Where only a bound is given, the exact number is not on record here.

For the assay, the target named is T1, chimeric human RORγ-Gal4 receptor (Homo sapiens, UniProt P51449).
T1 sequence (P51449 269-508 limits assumed): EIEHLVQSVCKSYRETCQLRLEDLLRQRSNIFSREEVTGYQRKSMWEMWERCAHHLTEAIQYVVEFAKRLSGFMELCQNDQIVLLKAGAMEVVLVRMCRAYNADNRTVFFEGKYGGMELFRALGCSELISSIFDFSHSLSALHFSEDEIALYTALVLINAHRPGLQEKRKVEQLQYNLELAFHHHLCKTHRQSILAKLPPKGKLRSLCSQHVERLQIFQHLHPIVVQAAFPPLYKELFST
The assay is described as follows: transient transactivation assay (RORγ-Gal4 luciferase reporter). Format: cell-based. As to conditions: Cos-7 cells transfected with RORγ-Gal4 and 5Gal4 pGL3 TK Luc reporter; overnight incubation; T0901317 at 10^-5 M as reference; read-out: IC50. Background: Reporter assays use an easily measured gene product as a stand-in for the process of interest.
Take `Cc1cc(OC(F)F)cc2ccn(Cc3c(Cl)ccc(C(=O)N4CCC(CC(=O)O)CC4)c3Cl)c12` [EM, 2-(1-(2,4-dichloro-3-((5-(difluoromethoxy)-7-methyl-1H-indol-1-yl)methyl)benzoyl)piperidin-4-yl)acetic acid]: the IC50 (commonly the midpoint of a concentration-inhibition curve) is below 100 nM.
`O=C(O)CC1CCN(C(=O)c2ccc(Cl)c(Cn3ccc4cc(C5CC5)cc(F)c43)c2Cl)CC1` [EN, 2-(1-(2,4-dichloro-3-((5-cyclopropyl-7-fluoro-1H-indol-1-yl)methyl)benzoyl)piperidin-4-yl)acetic acid]: the IC50 was below 100 nM.
To `O=C(O)CC1CCN(C(=O)c2ccc(Cl)c(C(=O)n3ccc4cc(C5CC5)cc(F)c43)c2Cl)CC1` [EO, 2-(1-(2,4-dichloro-3-(5-cyclopropyl-7-fluoro-1H-indole-1-carbonyl)benzoyl)piperidin-4-yl)acetic acid] belongs below 100 nM; to `O=C(O)CC1CCN(C(=O)c2ccc(Cl)c(Cn3ccc4cc(C(F)(F)F)cc(F)c43)c2Cl)CC1` [EP, 2-(1-(2,4-dichloro-3-((7-fluoro-5-(trifluoromethyl)-1H-indol-1-yl)methyl)benzoyl)piperidin-4-yl)acetic acid], below 100 nM.
Take `Cc1cn(C(=O)c2c(Cl)ncc(C(=O)N3CCC(CC(=O)O)CC3)c2Cl)c2c(C)cc(C(F)(F)F)cc12` [EQ, 2-(1-(4,6-dichloro-5-(3,7-dimethyl-5-(trifluoromethyl)-1H-indole-1-carbonyl)nicotinoyl)piperidin-4-yl)acetic acid]: the half-inhibitory concentration (IC50) was below 100 nM.
In the case of `Cc1cn(Cc2c(Cl)ncc(C(=O)N3CCC(CC(=O)O)CC3)c2Cl)c2c(C)cc(C(F)(F)F)cc12` [ER, 2-(1-(4,6-dichloro-5-((3,7-dimethyl-5-(trifluoromethyl)-1H-indol-1-yl)methyl)nicotinoyl)piperidin-4-yl)acetic acid], the IC50 is below 100 nM.
Regarding `Cc1cc(C(F)(F)F)cc2ccn(C(=O)c3c(Cl)ccc(C(=O)N4CCC(CC(=O)O)CC4)c3Cl)c12` [ES, 2-(1-(2,4-dichloro-3-(7-methyl-5-(trifluoromethyl)-1H-indole-1-carbonyl)benzoyl)piperidin-4-yl)acetic acid], the IC50 is below 100 nM.
With `Cc1cn(Cc2c(Cl)ccc(C(=O)N3CCOCC3)c2Cl)c2c(C)nc(C(F)(F)F)cc12` [ET, (2,4-dichloro-3-((3,7-dimethyl-5-(trifluoromethyl)-1H-pyrrolo[2,3-c]pyridin-1-yl)methyl)phenyl)(morpholino)methanone], the IC50 was below 100 nM.
For `Cc1cn(C(=O)c2c(Cl)ccc(C(=O)N3CCC(CC(=O)O)CC3)c2Cl)c2c(C)nc(C(F)(F)F)cc12` [EV, 2-(1-(2,4-dichloro-3-(3,7-dimethyl-5-(trifluoromethyl)-1H-pyrrolo[2,3-c]pyridine-1-carbonyl)benzoyl)piperidin-4-yl)acetic acid] the value was below 100 nM.
With `Cc1c(C#N)ccc2c1cc(Cc1c(Cl)ccc(C(=O)N3CCOCC3)c1Cl)n2C` [EX, 2-(2,6-dichloro-3-(morpholine-4-carbonyl)benzyl)-1,4-dimethyl-1H-indole-5-carbonitrile], the IC50 was below 100 nM.
To `Cc1c(C#N)ccc2c1cc(Cc1c(Cl)ccc(C(=O)N3CCC(CC(=O)O)CC3)c1Cl)n2C` [EY, 2-(1-(2,4-dichloro-3-((5-cyano-1,4-dimethyl-1H-indol-2-yl)methyl)benzoyl)piperidin-4-yl)acetic acid] belongs below 100 nM.
To `Cn1c(Cc2c(Cl)ccc(C(=O)N3CCOCC3)c2Cl)cc2c(Cl)cc(Cl)cc21` [EZ, (2,4-dichloro-3-((4,6-dichloro-1-methyl-1H-indol-2-yl)methyl)phenyl)(morpholino)methanone] belongs below 100 nM.
To `Cc1cc(C(F)(F)F)cc2c1cc(Cc1c(Cl)ccc(C(=O)N3CCN(C4COC4)CC3)c1Cl)n2C` [Example A1, (2,4-dichloro-3-((1,4-dimethyl-6-(trifluoromethyl)-1H-indol-2-yl)methyl)phenyl)(4-(oxetan-3-yl)piperazin-1-yl)methanone] belongs below 100 nM; to `Cc1cc(C(F)(F)F)cc2c1cc(Cc1c(Cl)ccc(C(=O)N3CCC(S(C)(=O)=O)CC3)c1Cl)n2C` [Example A1-11], below 100 nM.

These data come from US10106501B2, “Nuclear receptor modulators” (AbbVie Inc., priority 2015, dated 2018).
